Measured values: PubChem BioAssay AID1259408 (Genetic Toxicology Data Bank (GENE-TOX), 2018)
Activity calls are given as the source filed them. The rule behind the calls is not given here.

Tested on: GENE-TOX genotoxicity assays, various organisms and cells
Assay: GENE-TOX mutagenicity studies
Conditions: for call: Assay Type: In vivo carcinogenicity studies
[1] = Species/Cell Type: Escherichia coli polA (W3119 vs P3478), Assay Type: Rec-assay, DNA effects (bacterial DNA repair), Assay Code: RE1T, Evaluation Type: Evaluation A (Pre-1980)
[2] = Species/Cell Type: Escherichia coli polA (W3119 vs P3478), Assay Type: Rec-assay, DNA effects (bacterial DNA repair), Assay Code: RE1+, Evaluation Type: Evaluation A (Pre-1980)
[3] = Species/Cell Type: Nonhuman, Assay Code: CCG+, Evaluation Type: Evaluation A (Pre-1980)
[4] = Species/Cell Type: Saccharomyces cerevisiae, Assay Type: Mitotic recombination or gene conversion, Assay Code: YEH-, Evaluation Type: Evaluation A (Pre-1980)
[5] = Species/Cell Type: Salmonella typhimurium (one or more of the five standard strains: TA98, TA100, TA1535, TA1537, and TA1538), Assay Type: Histidine reverse gene mutation, Ames assay, Assay Code: SAL-, Evaluation Type: Evaluation A (Pre-1980)
[6] = Species/Cell Type: Drosophila melanogaster, Assay Type: Sex-linked recessive lethal gene mutation, Assay Code: SRLT, Evaluation Type: Evaluation A (Pre-1980)
[7] = Species/Cell Type: Salmonella typhimurium (one or more of the five standard strains: TA98, TA100, TA1535, TA1537, and TA1538), Assay Type: Histidine reverse gene mutation, Ames assay, Assay Code: SAL+*, Activation: With metabolic activation, Evaluation Type: Evaluation A (Pre-1980)

O=C(O)O
mutagenic call (Species/Cell Type: Bacillus subtilis (H17 vs M45), Assay Type: Rec-assay, spot test, DNA effects (bacterial DNA repair), Assay Code: REW+, Evaluation Type: Evaluation A (Pre-1980)): active; positive
mutagenic call [1]: no conclusion

O=C(O)c1cc(N=Nc2ccc([N+](=O)[O-])cc2)ccc1O
mutagenic call (Species/Cell Type: Salmonella typhimurium (one or more of the five standard strains: TA98, TA100, TA1535, TA1537, and TA1538), Assay Type: Histidine reverse gene mutation, Ames assay, Assay Code: SALT, Evaluation Type: Evaluation A (Pre-1980)): no conclusion

CC(C)(C)I
mutagenic call [2]: active; positive

NC(N)=S
mutagenic call (Species/Cell Type: Allium cepa, Assay Type: Chromosome aberrations, Assay Code: ALC-, Evaluation Type: Evaluation A (Pre-1980)): inactive; negative
mutagenic call (Species/Cell Type: Escherichia coli polA (W3110 vs P3478), Assay Type: Rec-assay, DNA effects (bacterial DNA repair), Assay Code: RE2-, Evaluation Type: Evaluation A (Pre-1980)): inactive; negative
mutagenic call [1]: no conclusion
mutagenic call (Species/Cell Type: Fischer rat embryo (RLV/1706) cells, Assay Type: Cell transformation, viral enhanced, Assay Code: CTR+, Evaluation Type: Evaluation A (Pre-1980)): active; positive
mutagenic call (Species/Cell Type: Fischer rat embryo (SA7/RE) cells, Assay Type: Cell transformation, viral enhanced, Assay Code: CTA+, Evaluation Type: Evaluation A (Pre-1980)): active; positive
mutagenic call (Species/Cell Type: Mouse, Sex: Male, Assay Type: Sperm morphology, Assay Code: SPI-, Evaluation Type: Evaluation A (Pre-1980)): inactive; negative
call [3]: active; positive
mutagenic call (Species/Cell Type: Nonhuman, Assay Type: Sister-chromatid exchange (SCE) in vitro, Assay Code: SC2+, Evaluation Type: Evaluation B (Post-1980)): active; positive
mutagenic call [4]: inactive; negative
mutagenic call [5]: inactive; negative
mutagenic call (Species/Cell Type: Salmonella typhimurium, Assay Type: Forward and reverse gene mutation, host-mediated assay, Assay Code: HMA+, Evaluation Type: Evaluation A (Pre-1980)): active; positive
mutagenic call (Species/Cell Type: Syrian hamster embryo (SA7/SHE) cells, Assay Type: Cell transformation, viral enhanced, Assay Code: CT7-, Evaluation Type: Evaluation A (Pre-1980)): inactive; negative
mutagenic call (Species/Cell Type: Syrian hamster embryo (SHE) cells, Assay Type: Cell transformation, clonal assay, Assay Code: CTC+, Evaluation Type: Evaluation A (Pre-1980)): active; positive

ClC1=C(Cl)[C@]2(Cl)[C@@H]3[C@H]4C[C@H]([C@@H]5O[C@H]45)[C@@H]3[C@@]1(Cl)C2(Cl)Cl
mutagenic call [6]: no conclusion
mutagenic call (Species/Cell Type: Hordeum vulgare (barley), Assay Type: Chromosome aberrations, Assay Code: HOCT, Evaluation Type: Evaluation A (Pre-1980)): no conclusion
mutagenic call (Species/Cell Type: Human diploid fibroblasts, Assay Type: Unscheduled DNA synthesis (UDS) in vitro, DNA effects, Assay Code: UDH-, Evaluation Type: Evaluation A (Pre-1980)): inactive; negative
call (Species/Cell Type: Nonhuman, Assay Code: CCG-L, Evaluation Type: Evaluation A (Pre-1980)): inactive; negative
mutagenic call [4]: inactive; negative
mutagenic call [5]: inactive; negative
mutagenic call (Species/Cell Type: Vicia faba, Assay Type: Chromosome aberrations, Assay Code: VIC+D, Dose Response: With dose response, Evaluation Type: Evaluation A (Pre-1980)): active; positive

COc1cc(O)c2c(c1)C(=O)c1cc(C)cc(O)c1C2=O
mutagenic call [7]: active; positive

O=BOO
mutagenic call [2]: active; positive

ClCCCl
mutagenic call (Species/Cell Type: Chinese hamster ovary (CHO) cells, Assay Type: Forward gene mutation at the HPRT locus, Assay Code: CHO+, Evaluation Type: Evaluation B (Post-1980)): active; positive
mutagenic call (Species/Cell Type: Drosophila melanogaster, Assay Type: Aneuploidy, sex chromosome gain, chromosome aberrations, Assay Code: DAG+F, Evaluation Type: Evaluation A (Pre-1980)): active; positive
mutagenic call (Species/Cell Type: Drosophila melanogaster, Assay Type: Aneuploidy, whole sex chromosome loss, chromosome aberrations, Assay Code: DAC+F, Evaluation Type: Evaluation A (Pre-1980)): active; positive
mutagenic call (Species/Cell Type: Drosophila melanogaster, Assay Type: Sex-linked recessive lethal gene mutation, Assay Code: SRL+, Evaluation Type: Evaluation A (Pre-1980)): active; positive
mutagenic call [2]: active; positive
call [3]: active; positive
mutagenic call [7]: active; positive
mutagenic call (Species/Cell Type: Salmonella typhimurium, Assay Type: Forward and reverse gene mutation, body fluid assay, Assay Code: BFU+, Evaluation Type: Evaluation A (Pre-1980)): active; positive
mutagenic call (Species/Cell Type: Syrian hamster embryo (SA7/SHE) cells, Assay Type: Cell transformation, viral enhanced, Assay Code: CT7+, Evaluation Type: Evaluation A (Pre-1980)): active; positive

COC(=O)C1=CCCN(N=O)C1
mutagenic call [6]: no conclusion
mutagenic call [7]: active; positive

O=C(O)c1ccccc1O
mutagenic call (Species/Cell Type: Saccharomyces cerevisiae, Assay Type: Reverse gene mutation, Assay Code: YER+, Evaluation Type: Evaluation A (Pre-1980)): active; positive
mutagenic call [5]: inactive; negative
